These results are taken from publication PMC7613620, “Reaction hijacking of tyrosine tRNA synthetase as a whole-of-life-cycle antimalarial strategy” (Science (New York, N.Y.), 2022).

The subject of assay [1] is protein translation in P. falciparum (Cam3.II-rev) schizonts. Nature of the assay: Protein translation assay (O-propargyl-puromycin incorporation). Format: cell-based, Plasmodium falciparum. Conditions: schizont stage Cam3.II-rev, 1 h pre-incubation then OPP incorporation over next 2 h; read-out: IC50 (Translation). On the procedure:
723 then fixed for 10 minutes (4% formaldehyde/0.02% glutaraldehyde in PBS). The click reaction was
724 performed for 1 h in the presence of CuSO4 (0.1 mM), THPTA (0.5 mM) and sodium ascorbate (5 mM) to
725 bring about azide-alkyne cycloaddition to Alexa Fluor 488 azide (0.1 µM). Flow cytometry was performed
726 using the FITC and Cy™5.5 channels to detect the Alexa Fluor 488 and PI, respectively.
729 Cam 3.II_Rev (25) trophozoite-infected RBCs (25-30 h p.i.) were incubated with inhibitor for 3 h at 10%
730 hematocrit and 5% parasitemia. The RBC pellet was washed 3 x in PBS + cOmplete. Cells were centrifuged
731 at 380 x g for 5 min and the pelleted cells lysed by resuspension in PBS + 0.05% saponin for 5 min on ice.

For assay [2], the system named is P. falciparum (Cam3.II-rev) schizont stage. Nature of the assay: 3 h drug pulse viability assay. Format: cell-based, Plasmodium falciparum. Conditions: schizont stage Cam3.II-rev, 3 h exposure, viability at trophozoite stage of next cycle; read-out: IC50 (Viability). On the procedure: 553 Sigma-Aldrich) for 48-72 h. For drug pulse assays, tightly synchronized parasites (1-1.5% parasitemia,
554 0.2% final hematocrit) were added to the plates and incubated for 3 h. Drugs were removed and the
555 parasitemia assessed in the trophozoite stage of the next cycle.
557 Compounds were tested against a range of drug resistant field isolates and laboratory strains using a
558 modified [3H]-hypoxanthine incorporation assay, as previously reported (46). Field isolates 7G8, Cam3.1,
559 Dd2, K1, TM90C2B and NF54 were obtained from MR4 (www.beiresources.org).
561 Mammalian cell culture experiments
562 The HepG2 (Human hepatocyte carcinoma) cell line was procured from ATCC (American Type
563 Culture Collection, Manassas, USA; HB-8065) and viability assessed using Cell Titer-GLO luminescent
564 cell viability assay reagents (Promega, catalogue number: G7570) (47, 48). For the assay, 2000 cells/well
565 were plated in 384-well plates 24 h prior to the experiment and incubated at 37°C in a CO2 incubator. The
566 medium was removed and cells were treated with fresh medium containing either vehicle (0.5% DMSO)
567 or serially diluted test compounds or doxorubicin (1.3 nM to 25 µM) in a final volume of 50 µl/well and
568 further incubated for 72 h at 37°C in a CO2 incubator.
569 were treated with 5 µl of 1% Triton X-100 (final assay conc. 0.1%). Following incubation, 25 µl of medium
570 was discarded and 25 µl of Cell Titer-GLO reagent was added to each well and the plate was kept on a plate
571 shaker for 15 min at 25°C with shaking at 300 rpm. Luminescence signals were measured in a Spectramax
572 M5 reader (Molecular Devices).
574 H1650 is a human lung cancer derived ATG7-null cell line (49) that can be used to assess effects on targets
576 adenocarcinoma; bronchoalveolar carcinoma). Other cells lines used are: H460 (NCI-H460; human lung;
577 carcinoma; large cell lung cancer; ATCC: HTB-177); and HCT116 (human colon; colorectal carcinoma;
578 ATCC: CCL-247; Lot : 5056139). […]
580 inhibitors and cell viability was assessed by comparing the ATP content in compound-treated wells with […]

Assay [3] concerns the target PfYRS (Plasmodium falciparum, UniProt Q8IAR7). Description: biochemical. In kind it is binding. On the procedure: (§1) 804 An intron was detected in the PftRNATyr sequence, that was not indicated in PlasmoDB. A T7 RNA
(§2) 805 polymerase promoter sequence was added to the 5’ end of the DNA sequence of P. falciparum and H.
(§3) 806 sapiens tRNATyr. This DNA template and its complementary strand were custom-synthesized by Sigma-
(§4) 807 Aldrich. Two oligonucleotides were annealed at 95°C for 5 min and the double-stranded DNA template
(§5) 808 was used for in vitro transcription. The transcription reaction was incubated at 37°C overnight. The reaction
(§6) 809 mixture consists of template DNA, T7 RNA polymerase and NTP mix as per manufacturer's instructions
(§7) 810 (HiScribe™ T7 Quick High Yield RNA Synthesis Kit, NEB). On the following day, the reaction mixture
(§8) 811 was treated with DNase I at 37°C for 15 min. tRNA was purified using RNA clean-up spin columns
(§9) 812 (Monarch® RNA Cleanup Kit, NEB) to remove contaminants from the transcription reaction.
(§10) 814 Differential scanning fluorimetry (DSF)
(§11) 815 PfYRS and HsYRS at 0.1 mg/ml were incubated with various substrates at 37°C for 1-3 h. PfYRS was
(§12) 816 assayed in 25 mM Tris, pH 8, 150 mM NaCl, 5 mM MgCl2 and 1 mM TCEP. HsYRS was assayed in 50
(§13) 817 mM Tris, pH 7.5, 150 mM NaCl, 50 mM KCl, 5 mM MgCl2 and 1 mM TCEP. SYPRO Orange (Sigma-
(§14) 818 Aldrich; 5,000X concentrate in DMSO) was added to the reaction mixture at a final concentration of 2.5X.
(§15) 819 25 µL of the sample was added into each well of a 96-well qPCR plate (Applied Biosystems). The plate
(§16) 820 was sealed and analysed using StepOnePlus Real-Time PCR system (Applied Biosystems). The samples
(§17) 821 were heated from 20°C to 90°C with a 1% continuous gradient. The thermal unfolding curve was plotted
(§18) 822 as the first derivative curve of the raw fluorescence values. The melting temperature (Tm), defined as the
(§19) 823 peak of the first derivative curve, was used to assess the thermal stability of protein-ligand complexes. KD
(§20) 824 values were calculated from DTm using the equation: ln(KD/[L]) = -131.5 x (∆Tm/Tm,apo) - 1.9, where [L]
(§21) 825 is the concentration of ligand and T is the temperature in Kelvin (40). […]

Assay [4] concerns the target PfYRSS234C (Plasmodium falciparum, UniProt Q8IAR7, S234C). Description: biochemical. In kind it is binding. Here is the method:
as §1, §2, §3, §4, §5, §6, §7, §8, §9, §10, §11, §12, §13, §14, §15, §16, §17, §18, §19, §20, §21

Assay [5] has as its target T1, HsYRS (Homo sapiens, UniProt P54577).
T1 construct: made in house; host or cells: E. coli BL21(DE3), pET-11a
T1 sequence (P54577 1-364): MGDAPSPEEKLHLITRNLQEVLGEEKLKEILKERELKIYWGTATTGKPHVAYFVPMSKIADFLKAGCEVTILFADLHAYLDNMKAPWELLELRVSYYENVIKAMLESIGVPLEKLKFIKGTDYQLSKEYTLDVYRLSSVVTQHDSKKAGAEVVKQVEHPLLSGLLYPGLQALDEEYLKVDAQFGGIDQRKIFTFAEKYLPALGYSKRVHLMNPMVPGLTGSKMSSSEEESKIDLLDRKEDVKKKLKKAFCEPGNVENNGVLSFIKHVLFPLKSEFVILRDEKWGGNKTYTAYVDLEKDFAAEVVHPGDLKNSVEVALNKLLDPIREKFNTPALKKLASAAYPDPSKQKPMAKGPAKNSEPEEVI
Nature of the assay: Differential scanning fluorimetry, HsYRS. In kind it is binding. On the procedure: This DNA template and its complementary strand were custom-synthesized by Sigma-
as §7, §16
The thermal unfolding curve was plotted
The melting temperature (Tm), defined as the
Reactions were conducted in 50 mM Tris-
Reactions were conducted in 50 mM Tris-HCL, pH 7.6,

PfYRS, sequence (Q8IAR7 entry or part of it): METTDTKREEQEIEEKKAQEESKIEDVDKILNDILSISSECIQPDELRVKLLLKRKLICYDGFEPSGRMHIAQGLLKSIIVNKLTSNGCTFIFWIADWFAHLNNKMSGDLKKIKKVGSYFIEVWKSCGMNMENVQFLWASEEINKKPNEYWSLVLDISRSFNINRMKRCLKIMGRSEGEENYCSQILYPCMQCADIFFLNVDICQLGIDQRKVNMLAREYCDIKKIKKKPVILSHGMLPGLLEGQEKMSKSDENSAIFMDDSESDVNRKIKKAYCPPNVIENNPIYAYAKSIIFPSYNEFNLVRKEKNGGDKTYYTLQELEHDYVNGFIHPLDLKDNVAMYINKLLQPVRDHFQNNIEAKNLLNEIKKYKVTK
PfYRSS234C, sequence (Q8IAR7 whole entry S234C): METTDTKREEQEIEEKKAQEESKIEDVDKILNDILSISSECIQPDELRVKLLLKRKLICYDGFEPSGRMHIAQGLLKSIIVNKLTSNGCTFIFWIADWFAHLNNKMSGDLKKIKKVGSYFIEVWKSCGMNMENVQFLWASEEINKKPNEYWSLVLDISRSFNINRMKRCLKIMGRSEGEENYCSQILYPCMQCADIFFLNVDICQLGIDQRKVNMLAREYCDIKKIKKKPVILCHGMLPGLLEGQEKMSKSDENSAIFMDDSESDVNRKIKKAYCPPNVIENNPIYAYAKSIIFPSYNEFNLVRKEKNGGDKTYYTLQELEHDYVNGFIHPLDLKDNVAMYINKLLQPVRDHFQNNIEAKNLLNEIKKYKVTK

With `CC1(C)N=C(N)N=C(N)N1OCCCOc1cc(Cl)c(Cl)cc1Cl` [WR99210], the IC50 is greater than 1000 nM in assay [1] and 1.9 nM in assay [2].
Regarding `Nc1ncnc2c1ncn2[C@@H]1O[C@H](COP(=O)(O)OC(=O)[C@@H](N)Cc2ccc(O)cc2)[C@@H](O)[C@H]1O` [AMP-Tyr], the Tm in assay [3] (PfYRS 2.3 μM, after incubation at 37°C for 3 h) is 62.6 ± 0.2 oC; in assay [4] (PfYRSS234C 2.3 μM, after incubation at 37°C for 3 h) it was 57.1 ± 0.3 oC; in assay [5] (HsYRS 2.3 μM, after incubation at 37°C for 3 h), 53.3 ± 0.2 oC. Besides, the DTm in assay [3] (PfYRS, versus apo) was 12.4 oC; in assay [4] (PfYRSS234C, versus apo), 6.5 oC; in assay [5] (HsYRS, versus apo) it was 2.8 oC. For the same compound, the Kd in assay [3] (PfYRS, estimated from DSF by empirical correlation of DTm and KD, read-out: Apparent KD*) was 2.2 nM; in assay [4] (PfYRSS234C, estimated from DSF by empirical correlation of DTm and KD, read-out: Apparent KD*) it was 24 nM; in assay [5] (HsYRS, estimated from DSF by empirical correlation of DTm and KD, read-out: Apparent KD*), 116 nM.
